Assay results from ChEMBL document CHEMBL4130350, “Discovery, mechanism and metabolism studies of 2,3-difluorophenyl-linker-containing PARP1 inhibitors with enhanced in vivo efficacy for cancer therapy” (Eur J Med Chem, 2017).
pIC50: −log10 of the molar value. Converted amounts (≈) assume the structure as drawn. Blank lines part the entries; values can stand above or below the compound they belong to. The source made the active and inactive calls. No cut-off for these calls is given here.

Assays:
Rattus norvegicus = test: Half life in Sprague-Dawley rat at 2 mg/kg, po by LC-MS/MS analysis; type: ADME, organism-based; conditions: in vivo
[1] = Protein binding in mouse plasma at 0.5 to 50 uM after 4 hrs by LC-MS/MS analysis; type: ADME, cell-free; conditions: read-out: PPB (converted)
[2] = Apparent permeability across apical to basolateral side in human Caco2 cells after 2 hrs by LC-MS/MS analysis; type: ADME, cell-based; conditions: Caco-2
Mus musculus [3] = test: Toxicity in nude BALB/cA mouse xenografted with human Capan1 cells harboring BRCA2 mutant assessed as weight loss at 0.5 mg/kg, po administered once daily for 21 consecutive days measured twice per week; type: organism-based; conditions: in vivo
[4] = Elimination half-life in mouse liver microsomes at 2 uM up to 60 mins by LC-MS/MS analysis; type: ADME, microsome; conditions: read-out: beta t1/2
[5] = Oral bioavailability in Sprague-Dawley rat at 2 mg/kg by LC-MS/MS analysis; type: ADME, organism-based; conditions: in vivo
CAPAN-1 [6] = test: Antiproliferative activity against human Capan1 cells after 7 days by CCK8 or SRB assay; type: functional, cell-based; conditions: CAPAN-1, 168 h
[7] = Cmax in Sprague-Dawley rat at 2 mg/kg, po by LC-MS/MS analysis; type: ADME, organism-based; parameters: dose 2 mg/kg, route oral; conditions: in vivo
[8] = Cmax in Sprague-Dawley rat at 1 mg/kg, iv by LC-MS/MS analysis; type: ADME, organism-based; parameters: dose 1 mg/kg, route intravenous; conditions: in vivo
[9] = Cytotoxicity against BRCA2 deficient Chinese hamster VC8 cells after 3 days by CCK8 or SRB assay; type: functional, cell-based; conditions: Cricetulus griseus, V-C8, 72 h
[10] = Apparent permeability across basolateral to apical side in human Caco2 cells assessed as drug recovery at 18593.3 pmol after 2 hrs by LC-MS/MS analysis; type: ADME, cell-based; conditions: Caco-2, read-out: Drug recovery
MDA-MB-436 [11] = test: Antiproliferative activity against human MDA-MB-436 cells after 7 days by CCK8 or SRB assay; type: functional, cell-based; conditions: MDA-MB-436, 168 h
[12] = Apparent permeability across apical to basolateral side in human Caco2 cells assessed as drug recovery at 5631.3 pmol after 2 hrs by LC-MS/MS analysis; type: ADME, cell-based; conditions: Caco-2, read-out: Drug recovery
[13] = AUC in Sprague-Dawley rat at 1 mg/kg, iv by LC-MS/MS analysis; type: ADME, organism-based; conditions: in vivo
V79 = test: Cytotoxicity against BRCA2 expressing Chinese hamster V79 cells after 3 days by CCK8 or SRB assay; type: cell-based; conditions: Cricetulus griseus, V79, 72 h
[14] = AUC in Sprague-Dawley rat at 2 mg/kg, po by LC-MS/MS analysis; type: ADME, organism-based; conditions: in vivo
[15] = Apparent permeability across basolateral to apical side in human Caco2 cells after 2 hrs by LC-MS/MS analysis; type: ADME, cell-based; conditions: Caco-2
[16] = Half life in Sprague-Dawley rat at 1 mg/kg, iv by LC-MS/MS analysis; type: ADME, organism-based; conditions: in vivo
[17] = Stability in mouse plasma at 1 uM up to 60 mins by LC-MS/MS analysis; type: ADME, cell-free; conditions: read-out: Stability
Mus musculus [18] = test: Toxicity in nude BALB/cA mouse xenografted with human Capan1 cells harboring BRCA2 mutant assessed as mortality at 0.5 mg/kg, po administered once daily for 21 consecutive days measured twice per week; type: organism-based; conditions: in vivo
CAPAN-1 [19] = test: Antitumor activity against human Capan1 cells harboring BRCA2 mutant xenografted in nude BALB/cA mouse assessed as tumor growth inhibition at 0.5 mg/kg, po administered once daily for 21 consecutive days measured twice per week; type: functional; conditions: CAPAN-1, po, read-out: TGI
[20] = Volume of distribution in Sprague-Dawley rat at 1 mg/kg, iv by LC-MS/MS analysis; type: ADME, organism-based; conditions: in vivo
[21] = Clearance in Sprague-Dawley rat at 1 mg/kg, iv by LC-MS/MS analysis; type: ADME, organism-based; conditions: in vivo
[22] = AUC in Sprague-Dawley rat at 20 mg/kg, po by LC-MS/MS analysis; type: ADME, organism-based; conditions: in vivo
CAPAN-1 [23] = test: Cell cycle arrest in human Capan1 cells assessed as accumulation at G2/M phase at 1 uM after 72 hrs by propidium iodide-staining based flow cytometry (reference value: 15.26%); type: functional
CAPAN-1 [24] = test: Cell cycle arrest in human Capan1 cells assessed as accumulation at G2/M phase at 0.1 uM after 72 hrs by propidium iodide-staining based flow cytometry (reference value: 15.26%); type: functional
MDA-MB-436 [25] = test: Induction of apoptosis in human MDA-MB-436 cells assessed as early apoptotic cells at 0.1 uM after 96 hrs in presence of pancaspase inhibitor Z-VAD-FMK by Annexin V-FITC/propidium iodide double-staining based flow cytometery (reference value: 2.32%); type: functional
MDA-MB-436 [26] = test: Induction of apoptosis in human MDA-MB-436 cells assessed as late apoptotic cells at 1 uM after 96 hrs by Annexin V-FITC/propidium iodide double-staining based flow cytometery (reference value: 5.61%); type: functional
[27] = Solubility of the compound in water after 24 hrs by HPLC analysis; type: physicochemical
CAPAN-1 [28] = test: Cell cycle arrest in human Capan1 cells assessed as accumulation at G0/G1 phase at 0.1 uM after 72 hrs by propidium iodide-staining based flow cytometry (reference value: 63.33%); type: functional
[29] = Cmax in Sprague-Dawley rat at 10 mg/kg, iv by LC-MS/MS analysis; type: ADME, organism-based; parameters: dose 10 mg/kg, route intravenous; conditions: in vivo
MDA-MB-436 [30] = test: Induction of apoptosis in human MDA-MB-436 cells assessed as early apoptotic cells at 1 uM after 96 hrs by Annexin V-FITC/propidium iodide double-staining based flow cytometery (reference value: 1.90%); type: functional
MDA-MB-436 [31] = test: Induction of apoptosis in human MDA-MB-436 cells assessed as early apoptotic cells at 0.1 uM after 96 hrs by Annexin V-FITC/propidium iodide double-staining based flow cytometery (reference value: 1.90%); type: functional
[32] = Volume of distribution in Sprague-Dawley rat at 10 mg/kg, iv by LC-MS/MS analysis; type: ADME, organism-based; conditions: in vivo
MDA-MB-436 [33] = test: Induction of apoptosis in human MDA-MB-436 cells assessed as early apoptotic cells at 1 uM after 96 hrs in presence of pancaspase inhibitor Z-VAD-FMK by Annexin V-FITC/propidium iodide double-staining based flow cytometery (reference value: 2.32%); type: functional
MDA-MB-436 [34] = test: Induction of apoptosis in human MDA-MB-436 cells assessed as late apoptotic cells at 0.1 uM after 96 hrs by Annexin V-FITC/propidium iodide double-staining based flow cytometery (reference value: 5.61%); type: functional
MDA-MB-436 [35] = test: Antitumor activity against human MDA-MB-436 cells harboring BRCA1 mutant xenografted in nude BALB/cA mouse assessed as tumor growth inhibition at 100 mg/kg, po administered once daily for 21 consecutive days measured twice per week; type: functional; conditions: MDA-MB-436, po, read-out: TGI
MDA-MB-436 [36] = test: Induction of apoptosis in human MDA-MB-436 cells assessed as late apoptotic cells at 1 uM after 96 hrs in presence of pancaspase inhibitor Z-VAD-FMK by Annexin V-FITC/propidium iodide double-staining based flow cytometery (reference value: 5.11%); type: functional
CAPAN-1 [37] = test: Cell cycle arrest in human Capan1 cells assessed as accumulation at S phase at 1 uM after 72 hrs by propidium iodide-staining based flow cytometry (reference value: 21.42%); type: functional
[38] = Cmax in Sprague-Dawley rat at 20 mg/kg, po by LC-MS/MS analysis; type: ADME, organism-based; parameters: dose 20 mg/kg, route oral; conditions: in vivo
MDA-MB-436 [39] = test: Induction of apoptosis in human MDA-MB-436 cells assessed as late apoptotic cells at 0.1 uM after 96 hrs in presence of pancaspase inhibitor Z-VAD-FMK by Annexin V-FITC/propidium iodide double-staining based flow cytometery (reference value: 5.11%); type: functional
[40] = Half life in Sprague-Dawley rat at 10 mg/kg, iv by LC-MS/MS analysis; type: ADME, organism-based; conditions: in vivo
CAPAN-1 [41] = test: Cell cycle arrest in human Capan1 cells assessed as accumulation at S phase at 0.1 uM after 72 hrs by propidium iodide-staining based flow cytometry (reference value: 21.42%); type: functional
[42] = AUC in Sprague-Dawley rat at 10 mg/kg, iv by LC-MS/MS analysis; type: ADME, organism-based; conditions: in vivo
MDA-MB-436 [43] = test: Induction of apoptosis in human MDA-MB-436 cells assessed as caspase-3/7 activation at 0.1 to 1 uM after 72 hrs by Caspase-Glo 3/7 assay; type: functional, cell-based
[44] = Oral bioavailability in Sprague-Dawley rat at 20 mg/kg by LC-MS/MS analysis; type: ADME, organism-based; conditions: in vivo
[45] = Half life in Sprague-Dawley rat at 20 mg/kg, po by LC-MS/MS analysis; type: ADME, organism-based; conditions: in vivo
[46] = Clearance in Sprague-Dawley rat at 10 mg/kg, iv by LC-MS/MS analysis; type: ADME, organism-based; conditions: in vivo
CAPAN-1 [47] = test: Cell cycle arrest in human Capan1 cells assessed as accumulation at G0/G1 phase at 1 uM after 72 hrs by propidium iodide-staining based flow cytometry (reference value: 63.33%); type: functional

Compound: Cn1ncnc1[C@H]1c2n[nH]c(=O)c3cc(F)cc(c23)N[C@@H]1c1ccc(F)cc1 [TALAZOPARIB]
t1/2 (Rattus norvegicus): 3.4 h | fraction unbound at 4 h, up to 50 µM [1]: 0.057 | Papp A→B at 2 h [2]: 0.9 ×10⁻⁶ cm/s | Activity (Mus musculus [3]): Toxic | half-life at 2 µM [4]: > 1 h | bioavailability [5]: 104% | pIC50 (CAPAN-1 [6]): 8.74 | Cmax [7]: 3100 ng/mL | Cmax [8]: 2060 ng/mL | pIC50 [9]: 8.38 | recovery at 2 h [10]: 108% | pIC50 (MDA-MB-436 [11]): 9.15 | recovery at 2 h [12]: 98.4% | AUC [13]: 6540 ng·h/mL | pIC50 (V79): 5.30 | AUC [14]: 13200 ng·h/mL | Papp B→A at 2 h [15]: 51.8 ×10⁻⁶ cm/s | half-life [16]: 4.6 h | remaining at 1 h, 1 µM [17]: 106% | Activity (Mus musculus [18]): Toxic | inhibition in vivo at 0.5 mg/kg (CAPAN-1 [19]): 80% | Vd [20]: 1.1 L/kg | clearance [21]: 3.33 mL/min/kg

AUC [22]: 4990 ng·h/mL | solubility at 24 h [27]: 104 µg/mL (≈ 239 µM) | Cmax [29]: 12300 ng/mL | pIC50 (MDA-MB-436 [11]): 7.41 | Vd [32]: 3 L/kg | Cmax [38]: 2590 ng/mL | half-life [40]: 1.1 h | AUC [42]: 5500 ng·h/mL | bioavailability [44]: 45.4% | half-life [45]: 1 h | clearance [46]: 30 mL/min/kg
Compound: O=C(c1cc(Cc2n[nH]c(=O)c3ccccc23)ccc1F)N1CCN(C(=O)C2CC2)CC1 [OLAPARIB]
Activity (CAPAN-1 [23]): 51.54% | Activity (CAPAN-1 [24]): 20.91% | Activity (MDA-MB-436 [25]): 3.3% | Activity (MDA-MB-436 [26]): 17.75% | Activity (CAPAN-1 [28]): 51.83% | pIC50 (CAPAN-1 [6]): 6.40 | pIC50 [9]: 6.25 | Activity (MDA-MB-436 [30]): 4.15% | Activity (MDA-MB-436 [31]): 2.5% | Activity (MDA-MB-436 [33]): 4.79% | Activity (MDA-MB-436 [34]): 9.78% | inhibition in vivo at 100 mg/kg (MDA-MB-436 [35]): 65% | pIC50 (V79): 4.27 to 5.00 | Activity (MDA-MB-436 [36]): 9.97% | Activity (CAPAN-1 [37]): 26.14% | Activity (MDA-MB-436 [39]): 6.52% | Activity (CAPAN-1 [41]): 27.2% | Activity (MDA-MB-436 [43]): Active | Activity (CAPAN-1 [47]): 22.33%
